Laboratory results reported in PMC3749181, “Rapid Identification of Antifungal Compounds against Exserohilum rostratum Using High Throughput Drug Repurposing Screens” (PLoS ONE, 2013).
Like-named read-outs stand apart in the source and are kept apart here.

What was measured:
[1] = test system: E. rostratum hyphal fragments; assay: hyphal fragment fungicidal ATP content assay (PBS, 1536-well); format: cell-based, Exserohilum rostratum; conditions: for Hyphae % M. Res. / Emax / Hyphae % Max. Resp.: 46 µM Amphotericin B = 100%; for IC50: read-out: Hyphae IC50
Experimental: (§1) Conidia and hyphae of E. rostratum were obtained as described by Richard et al., with the following modifications. Briefly, conidia were harvested from Potato Dextrose Agar (PDA) cultured media with 0.05% Tween 80, and the conidial suspension was filtered using a Cell Strainer (100 µm, BD Falcon REF 352340). After centrifugation at 700g for 10 min, the suspension was decanted and conidia were resuspended at 1×10^5 per ml in RPMI and counted in a hemocytometer. Hyphae were harvested from yeast extract peptone dextrose (YPD) culture media with 0.05% Tween 80. Hyphal fragments were sized by vortexing 15 sec twice with 0.4 mm glassbeads, and the hyphae suspension was filtered by cheese cloth twice. […] To normalize concentrations of hyphal fragments for batch to batch consistency, carbohydrate analysis was performed by a phenol-sulfuric acid method as previously described. The final stock concentration of hyphae was adjusted to 1.0 (OD490) per 100 µl.
(§2) The ATPLite assay kit, consisting of luciferase/luciferin and detergent, was used to quantitate cellular ATP levels as a marker for cell viability (Table 1). For assay development, hyphal fragments or conidia in PBS were plated in a seeding density of 3,750, 7,500 and 15,000 cellular particles/well with a final volume of 5 µl/well using the Multidrop-Combi dispenser in white 1536-well plates. Conidia or hyphae fragments were incubated for 24 h at 37°C in a 5% CO2 humidified atmosphere. ATPLite detection reagents were added at 4 µl/well. The assay plates were incubated at room temperature for 15 minutes before reading luminescence intensity on a ViewLux plate reader (Perkin Elmer, Waltham, MA). Conidia suspended in RPMI medium were inoculated at concentrations of 62.5, 125 and 250 conidia/well with a final volume of 5 µl/well in white 1536-well plates. The conidia assay was developed and optimized in the same way as the hyphal assay.
(§3) The LOPAC library (Sigma-Aldrich) has been extensively used for HTS assay validations, [18]. The NIH Chemical Genomics Center Pharmaceutical (NPC) collection was constructed in-house through a combined effort of compound purchasing and custom synthesis and recently expanded to 4096 compounds. […] 2.5 µl/well PBS was dispensed into 1536-well plates using a Multidrop-Combi dispenser. Compound in DMSO solution was transferred in a volume of 23 nl/well using a NX-TR pintool station (WAKO Scientific Solutions, San Diego, CA). This additional PBS step for compound addition was designed to prevent the potential fungal contamination of compound libraries. The hyphal fragments in PBS were then added at 2.5 µl/well for a final seeding density of 15,000 hyphal fragments/well using the Multidrop-Combi dispenser. The final compound concentration was 46 µM in the primary screen. The assay plates were incubated for 24 h at 30°C before the detection of cellular viability with the ATP content assay. Screen of conidia was performed in a similar way except that PBS was replaced with RPMI medium and conidia were plated for a final seeding density of 250 conidia/well.
(§4) The primary screen data and curve fitting were analyzed using software developed internally at the NIH Chemical Genomics Center (NCGC). Total signals for cellular viability (100% cellular viability) were calculated from the wells with DMSO solvent and the complete cell killing (0% cellular viability) was calculated from 46 µM amphotericin B treated wells. […] All values were expressed as the mean +/− SD (n≥3).

E. rostratum conidia = assay: conidia growth inhibition ATP content assay (RPMI, 1536-well); format: cell-based, Exserohilum rostratum; conditions: for IC50: read-out: Conidia IC50
Experimental: as §1, §2, §3, §4

SH-SY5Y cells = assay: SH-SY5Y cytotoxicity counter-screen (ATP content assay); format: cell-based, Human; conditions: for SH-SY5Y % M. Res.: Inact. = no significant activity at 46 µM; for SH-SY5Y % Max. Resp.: Table 2, SH-SY5Y, inact. = no significant activity at 46 µM
Experimental: Human neuroblastoma SH-SY5Y cell line (Catalog No. CRL-2266) was purchased from ATCC (Manassas, VA). SH-SY5Y cell line was cultured in 175-cm^2 tissue culture flasks (Costar, Cambridge, MA) with 30 ml of growth medium at 37°C in a 5% CO2 humidified atmosphere. Growth medium was made with Dulbecco's Modified Eagle Medium: Nutrient Mixture F-12 with 10% fetal bovine serum (FBS). Growth medium was replaced every other day and cells were passed at 75% confluence.
as §2
Two small known compound libraries including the LOPAC (1280 compounds) and approved drugs (4096 compounds) were screened in parallel using the above optimized assays for hyphae and conidia in 1536-well plates (Fig. 4). […] A mammalian SH-SY5Y cell line was used in parallel as a counter-screen with the same ATP content assay kit to assess the specificity of these compounds for E. rostratum.

[2] = Table S1, Inact. = no significant activity in the primary screen
[3] = Table S1, 46 µM Amphotericin B = 100%, Inact. = no significant activity at 46 µM
[4] = Table S1, Inact. = no significant activity at the highest compound concentration (46 µM)
[5] = Table S1, 46 µM Amphotericin B = 100%
[6] = Exserohilum rostratum, 24 h, Table 2, 24 h, inact. = no significant activity at the highest compound concentration (46 µM)
[7] = Exserohilum rostratum, Table 2, 46 µM Amphotericin B = 100%, inact. = no significant activity at 46 µM, read-out: Conidia % Max. Resp.
[8] = Exserohilum rostratum, Table S1, Inact. = no significant activity in the primary screen, read-out: Hyphae % M. Res.
[9] = Exserohilum rostratum, Table S1, Inact. = no significant activity in the primary screen
[10] = Table 2, inact. = no significant activity in the primary screen
[11] = Table 2, 24 h, inact. = no significant activity in the primary screen

Structure (SMILES) | Conidia % M. Res. (E. rostratum conidia; [3]) | SH-SY5Y % M. Res. (SH-SY5Y cells; [5]) | IC50 (E. rostratum conidia; [6]) | Emax (E. rostratum conidia; [7]) | SH-SY5Y % Max. Resp. (SH-SY5Y cells; 46 µM Amphotericin B = 100%) | SH-SY5Y % Max. Resp. (SH-SY5Y cells) | Hyphae % Max. Resp. [1, 10] | further results
Sc1nc2ccccc2s1 [2-Mercaptobenzothiazole] | Inact. | Inact. |  |  |  |  |  | Hyphae % M. Res. [1, 2]: Inact.; Hyphae IC50 [1, 2]: Inact.; Conidia IC50 (E. rostratum conidia; [4]): Inact.; SH-SY5Y IC50 (SH-SY5Y cells; [4]): Inact.
CCC(C)(C)c1ccc(CC(C)CN2C[C@@H](C)O[C@@H](C)C2)cc1 (stereo partly drawn) [Amorolfine] |  |  | 7.86 µM | 102% | inact. | inact. |  | Emax ([1]; Exserohilum rostratum, Table 2, inact. = no significant activity in the primary screen, read-out: Hyphae % Max. Resp.): 81%; IC50 ([1]; Exserohilum rostratum, Table 2, 24 h, inact. = no significant activity in the primary screen): 4.51 µM
Clc1ccc(C2(Cn3cncn3)OCCO2)c(Cl)c1 [Azaconazole] | Inact. | Inact. |  |  |  |  |  | Emax [1, 8]: 64%; IC50 [1, 9]: 46.9 µM; Conidia IC50 (E. rostratum conidia): Inact.; SH-SY5Y IC50 (SH-SY5Y cells): Inact.
[N-]=[N+]=CC(=O)OC[C@H](N)C(=O)O [Azaserine] | Inact. | Inact. |  |  |  |  |  | Hyphae % M. Res. [1, 2]: Inact.; Hyphae IC50 [1, 2]: Inact.; Conidia IC50 (E. rostratum conidia; [4]): Inact.; SH-SY5Y IC50 (SH-SY5Y cells; [4]): Inact.
CO/C=C(/C(=O)OC)c1ccccc1Oc1cc(Oc2ccccc2C#N)ncn1 [Azoxystrobin] |  |  |  |  | inact. | inact. | 81% | IC50 [1, 11]: 0.198 µM; Conidia % Max. Resp. (E. rostratum conidia; Table 2, 46 µM Amphotericin B = 100%, inact. = no significant activity at 46 µM): 83%; IC50 (E. rostratum conidia; Table 2, 24 h, inact. = no significant activity at the highest compound concentration (46 µM)): 0.304 µM
c1ccc(-c2ccc(C(c3ccccc3)n3ccnc3)cc2)cc1 (stereo not drawn) [Bifonazole] |  | 47% |  |  |  |  |  | Emax [1, 8]: 74%; IC50 [1, 9]: 11.8 µM; IC50 (E. rostratum conidia; Exserohilum rostratum, Table S1, Inact. = no significant activity at the highest compound concentration (46 µM)): 9.35 µM; Emax (E. rostratum conidia; Exserohilum rostratum, Table S1, 46 µM Amphotericin B = 100%, Inact. = no significant activity at 46 µM, read-out: Conidia % M. Res.): 64%; IC50 (SH-SY5Y cells; Homo sapiens, SH-SY5Y, Table S1, Inact. = no significant activity at the highest compound concentration (46 µM)): 46.9 µM
Oc1c(Cl)cc(Cl)cc1Sc1cc(Cl)cc(Cl)c1O [Bithionol] |  |  | 1.87 µM | 100% | inact. | inact. | inact. | Hyphae IC50 [1, 11]: inact.
Cc1ccc2c(Br)cc(Br)c(O)c2n1 [Broquinaldol] |  |  | 7.75 µM | 101% | inact. | inact. | inact. | Hyphae IC50 [1, 11]: inact.
